Measurements from patent US20210322346A1, “CHEMICALLY MODIFIED CURCUMINS FOR USE IN THE PRODUCTION OF LIPOXINS” (The Research Foundation for The State University of New York, priority 2015, published 2021).

Experiments:
[1] = system: elastase/LPS-treated COPD mice; assay: Morphometry: mean linear intercept (chord length) in COPD mice; assay type: in vivo, mouse; conditions: oral gavage for seven days, control 33, COPD 54
Method: Elastase and LPS exposure: A total of 180 male and 180 female WT mice (8-12 weeks old) were used for all experiments. Experiments were performed in triplicate for each group of age- and gender-matched mice. Animals were exposed by the intranasal route to 10 μl saline containing 1.2 units of porcine pancreatic elastase (Elastin Products, Owensville, Mo.) on Tuesday and 10 μl saline containing 7 μg (−70 endotoxin units) of LPS from Escherichia coli O26:B6 (Sigma-Aldrich, St. Louis, Mo.) on Friday of each week for four consecutive weeks.
3 mg of CMC2.24 powder were dissolved in 1 mL suspension of 2% Carboxymethyl cellulose vehicle for the daily oral administration of CMC2.24 (40 mg/kg). Vehicle alone was administered to the control group. Both CMC2.24 and vehicle control were administered once daily over the 7-day protocol by gavage (Zhang, Y. et al. 2010; Elburki, M. S. et al. 2014).
Morphometry—Air Space Enlargement: In an effort to quantitate alveolar air space enlargement, the Mean Linear Intercept (MLI) was implemented. […] Afterwards, seven equally spaced lines were then drawn within the guard zone, and directly measured by manual use of a ruler. Starting from the left, the line was scanned for any intersections with the alveolar walls and measured until the following intersection with the alveolar surface on the right. […]

[2] = system: IL-1β relative to lipoxin A4; assay: Experiment B: IL-1β/lipoxin A4 ratio in LPS-exposed macrophages in culture; assay type: cell-based, rat; conditions: LPS (100 ng/ml)-exposed macrophages, CMC2.24 5 μM
Method: (§1) In the second experiment, macrophages (chronic inflammatory cells), were collected and counted from the peritoneal washes of the six non-diabetic control rats. These cells were then pooled and incubated under different in vitro conditions including: group 1, control Møs; group 2, Møs incubated with lipopolysaccharide (LPS)/endotoxin at 100 ng/ml, final concentration, added to the culture media; group 3, Møs exposed to LPS but treated with CMC2.24 at a final concentration of 2 μM; and group 4, like group 3 except that CMC2.24 was increased to 5 μM (note that in this cell culture experiment, sufficient IL-6 was secreted by the LPS-exposed Møs unlike Experiment A, above).

Solubility = assay type: physicochemical
Lipoxin B4 = Lipoxin B4 ELISA in macrophage conditioned media, CFE and serum of diabetic rats; assay type: in vivo, rat; conditions: STZ-diabetic rats, 30 mg/kg oral once per day for 3 weeks
Method: (§2) Adult rats were made diabetic by I.V. injection of streptozotocin; non-diabetic rats served as controls (n=6 rats per group; all groups). Half of the diabetics (blood glucose >500 mg/dl) were orally administered CMC2.24 (30 mg/kg) once per day for 3 weeks; untreated diabetics (D) and N rats received vehicle alone. PEs were collected at time=0 (ie, before thioglycollate injection into peritoneal cavity). Resident macrophages were isolated from PEs, then incubated in cell culture for 18 hours (370 C; 95% air/5% CO2 atmosphere). Lipoxin B4 levels were measured by ELISA (a) in cell culture serum-free conditioned media; (b) in the cell-free exudates (CFEs); and (c) in serum.

[3] = system: Human lung epithelial cell line (A549); assay: Cell viability by CCK-8 assay in A549 cells; assay type: cell-based; conditions: 1 to 80 μM, 24 h
Method: (§3) Human lung epithelial cell line (A549) and primary alveolar macrophage cell culture: Human lung epithelial cell line (A549, ATCC #CCL-185) was purchased from ATCC (Manassas, Va.); and primary alveolar macrophages were prepared from healthy adult animals (swine). A549 cells and primary alveolar macrophages were cultured in RPMI Media 1640 medium supplemented with 10% (v/v) FBS, 1% (v/v) L-glutamine (200 mM) and 1% (v/v) Antibiotic-Antimycotic antibiotics at 37° C. in a humidified 5% CO2 incubator.
(§4) CMC 2.24 treatment and PM2.5 exposure: The cells were subcultured when cells were grown to about 70% confluency. […]
(§5) Analysis of cell viability by CCK-8 assay: In order to study the effect of CMC2.24 in A549 cells and primary alveolar macrophages after PM2.5 exposure, cell viability was determined using Cell Counting Kit (CCK)-8 kit (Sigma-Aldrich, MO, USA) according to the manufacturer's instructions, A549 cells (0.5×10^4/well) and primary macrophages (1×10^4/well) were cultured in 96-well plates for 24 h and 6 h, respectively; the cells were then exposed to various concentrations of CMC 2.24 (i.e. 0, 1, 5, 10, 20, 30, 40, and 80 μM of CMC 2.24) in the presence or absence of 100 μg/ml PM2.5 in the media for 24 h. […] Then optical density value was measured at 450 nm using a microplate reader (Multiskan Ascent, Thermo Lab systems). […]

[4] = cited from earlier work
[5] = system: IL-1β relative to lipoxin A4; assay: Experiment A: IL-1β and lipoxin A4 secreted by macrophages from treated diabetic rats; assay type: in vivo, rat; conditions: 30 mg/kg oral once per day for 21 days, compared to untreated diabetics
Method: In an in vivo experiment, three groups of adult male rats were established including non-diabetic controls (NDC group; n=6 rats/group); rats that were made diabetic and severely hyperglycemic by STZ injection (D+vehicle group; n=6 rats/group), and a 3rd group of rats (n=6 rats/group) in which the diabetics were orally administered CMC2.24 (30 mg/kg body weight) once per day for 21 days. At the end of the protocol, the rats were sacrificed and the peritoneal cells were collected by washing with cold 15 ml phosphate buffered saline/EDTA, The macrophages were harvested from the peritoneal wash from each rat, after 2 hours of adherence to culture plates (sterile conditions), the cells were counted and then incubated for 18 h at 37° C. in an atmosphere of 95% air/5% CO2. The conditioned media was then collected and analyzed for the resolvin, lipoxin A4, and for two inflammatory cytokines, IL-1β and IL-6. The data is expressed as a ratio of […] (pg/ml) relative to resolvin (ng/ml) secreted by the macrophages from the three experimental groups (FIG. 45A).

Lipoxin A4 = Lipoxin A4 ELISA in macrophage conditioned media, CFE and serum of diabetic rats; assay type: in vivo, rat; conditions: STZ-diabetic rats, 30 mg/kg oral once per day for 3 weeks
Method: as §2, with “13” for “18”, “A4” for “B4”

[6] = cell and tissue culture, in vivo studies; cited from earlier work
[7] = system: IL-6 relative to lipoxin A4; assay: Experiment B: IL-6/lipoxin A4 ratio in LPS-exposed macrophages in culture; assay type: cell-based, rat; conditions: LPS (100 ng/ml)-exposed macrophages, CMC2.24 5 μM
Method: as §1

[8] = system: primary alveolar macrophages; assay: Cell viability by CCK-8 assay in primary alveolar macrophages; assay type: cell-based; conditions: 1 to 80 μM, 24 h
Method: as §3, §4, §5

[9] = system: S. aureus-infected hTG SP-B mice; assay: Mortality in S. aureus pneumonia in hTG SP-B mice; assay type: in vivo, mouse; conditions: 50 mg/kg daily
Method: S. aureus-induced pneumonia model: Pilot experiments were performed to establish the S. aureus Xen36 pneumonia model using different doses of bacteria to infect mouse lung. […] Therefore, direct intratracheal inoculation of bioluminescent S. aureus Xen36 at a dose of 5×10^8/50 μl was used to infect mice in all subsequent experiment (Farnsworth, C. W. et al. 2015; Schriever, M. P. et al. 2011). In brief, hTG SP-B mice between 8 and 12 weeks old were anesthetized using intraperitoneal ketamine/xylazine (90 mg/kg ketamine, 10 mg/kg xylazine) injection. A 0.3-cm mid-line neck incision was made to expose the trachea. In the sham group, 50 μl of sterile vehicle was injected into the trachea by the same method. After infection, bio-luminescence signal was observed and quantified by an in vivo imaging system. (Xenogen-200 series, Caliper Life Sciences, Hopkinton, Mass.). Buprenorphine (0.05 mg/kg body weight) was injected for postoperative analgesia every 8-12 hrs. Mice were returned to their cages in a temperature-controlled room. (22. ° C.) with 12-h light and dark cycles and monitored every 4 h. Mice were anesthetized with isoflurane (2%) at several time points after infection (0 h, 12 h, 24 h, 28 h, 32 h, and 48 h) (Pribaz, J. R. et al, 2012; Guo, Y, et al, 2013). At 48 h after S. aureus infection, nice were sacrificed under anesthesia. […]

[10] = rats with pathologically excessive MMPs, doses as high as 500 mg/kg of body weight; cited from earlier work

SMILES: O=C(/C=C/c1ccc(O)cc1)C(C(=O)/C=C/c1ccc(O)cc1)C(=O)Nc1ccccc1 [CMC2.24]
- average chord length (mean linear intercept) [1]: 35 µm
- reduction of IL-1β/lipoxin A4 ratio [2]: 93.8%
- solubility relative to CMC2.5 (Solubility): improved solubility
- increase of Lipoxin B4 secretion by resident peritoneal macrophages (Lipoxin B4): 12.7%
- cell viability (CCK-8), compound alone [3]: did not influence cell viability
- solubility relative to curcumin [4]: improved solubility
- reduction of ratio IL-1β relative to lipoxin A4 secreted by macrophages [5]: 85.3%
- increase of Lipoxin A4 in rat serum (Lipoxin A4): 15.5%
- increase of Lipoxin A4 in resident peritoneal cell-free exudates (Lipoxin A4): 80.6%
- increase of Lipoxin A4 secretion by resident peritoneal macrophages (Lipoxin A4; vs untreated diabetics): 12.7%
- toxicity compared to the parent compound [6]: even less toxicity
- reduction of IL-6/lipoxin A4 ratio [7]: 86%
- cell viability (CCK-8), compound alone [8]: did not influence cell viability
- mortality rate ([9]; infected SP-B-C mice, control 76%, p<0.05): 50%
- mortality rate ([9]; infected SP-B-T mice, control 33%): 32%
- toxicity on oral gavage [10]: no evidence of toxicity
